Values quoted from earlier work as cited in patent US12037623B2, “Enzymatic synthesis of 4′-ethynyl nucleoside analogs” (priority 2018, dated 2024).

Assays:
[1] = oral; mouse and rhesus monkey
[2] = tested on: SIV; details: PBMC from rhesus macaque, 24 hr after drug administration
[3] = tested on: HIV infection; details: humanized mouse models and SIV infected rhesus macaque model
[4] = tested on: HIV
[5] = pbmc

absorption [1] | plasma concentrations [1] | SMILES | susceptibility of isolated PBMC to SIV infection [2] | efficacy in animal models of HIV infection [3] | antiviral activity against clinical isolates ([4]; clinical isolates across all subtypes that have been evaluated) | antiretroviral activity ([4]; in-vitro HIV replication assays) | intracellular half-life [5]
rapid absorption | high plasma concentrations | C#C[C@]1(CO)O[C@@H](n2cnc3c(N)nc(F)nc32)C[C@@H]1O [EFdA, 4′-ethynyl-2-fluoro-2′-deoxyadenosine] | refractory to SIV infection | efficacy | comparable antiviral activity | potent antiretroviral | –
– | – | C#C[C@]1(COP(=O)(O)OP(=O)(O)OP(=O)(O)O)O[C@@H](n2cnc3c(N)nc(F)nc32)C[C@@H]1O [EFdA-TP, EFdA Triphosphate] | – | – | – | – | exceeds 72 hrs
